Experimental findings from PubChem BioAssay AID1259407 (Chemical Carcinogenesis Research Information System (CCRIS), 2018) are described below.

Molecules are shown by their SMILES. The source made the active and inactive calls. No rule for the calls is given here.

The subject of this series is CCRIS mutagenicity, Ames/micronucleus/aberration tests. In words: CCRIS mutagenicity studies.
Setting [1] is: Test System: AMES SALMONELLA TYPHIMURIUM, Strain/Indicator: TA98, Metabolic Activation: NONE, Method: PREINCUBATION
[2] abbreviates: Test System: AMES SALMONELLA TYPHIMURIUM, Strain/Indicator: TA100, Metabolic Activation: NONE, Method: PREINCUBATION
Where [3] appears, read: Test System: AMES SALMONELLA TYPHIMURIUM, Strain/Indicator: TA1535, Metabolic Activation: NONE, Method: PREINCUBATION
Setting [4] is: Test System: AMES SALMONELLA TYPHIMURIUM, Strain/Indicator: TA1537, Metabolic Activation: NONE, Method: PREINCUBATION
Setting [5] is: Test System: AMES SALMONELLA TYPHIMURIUM, Strain/Indicator: TA98, Metabolic Activation: HAMSTER, LIVER, S-9, AROCLOR 1254 (10%), Method: PREINCUBATION
The mark [6] stands for this setting: Test System: AMES SALMONELLA TYPHIMURIUM, Strain/Indicator: TA98, Metabolic Activation: RAT, LIVER, S-9, AROCLOR 1254 (10%), Method: PREINCUBATION
Where [7] appears, read: Test System: AMES SALMONELLA TYPHIMURIUM, Strain/Indicator: TA100, Metabolic Activation: HAMSTER, LIVER, S-9, AROCLOR 1254 (10%), Method: PREINCUBATION
The mark [8] stands for this setting: Test System: AMES SALMONELLA TYPHIMURIUM, Strain/Indicator: TA100, Metabolic Activation: RAT, LIVER, S-9, AROCLOR 1254 (10%), Method: PREINCUBATION
Where [9] appears, read: Test System: AMES SALMONELLA TYPHIMURIUM, Strain/Indicator: TA1535, Metabolic Activation: HAMSTER, LIVER, S-9, AROCLOR 1254 (10%), Method: PREINCUBATION
The mark [10] stands for this setting: Test System: AMES SALMONELLA TYPHIMURIUM, Strain/Indicator: TA1535, Metabolic Activation: RAT, LIVER, S-9, AROCLOR 1254 (10%), Method: PREINCUBATION

On to `Cc1ccc2c(c1)C(=O)c1cc(O)ccc1C2=O`, for which the mutagenic call was “inactive; negative” under setting [1]; “active; positive” (Test System: AMES SALMONELLA TYPHIMURIUM, Strain/Indicator: TA98, Metabolic Activation: RAT, LIVER, S-9, PCB, Method: PREINCUBATION); “active; positive” under setting [2]; “active; positive” (Test System: AMES SALMONELLA TYPHIMURIUM, Strain/Indicator: TA100, Metabolic Activation: RAT, LIVER, S-9, PCB, Method: PREINCUBATION).
Turning to `CNC(=O)c1cccc(NCC(=O)NCCc2ccc(OC)c(OC)c2)c1`, the mutagenic call reads like this: under setting [1], “inactive; negative”; (Test System: AMES SALMONELLA TYPHIMURIUM, Strain/Indicator: TA98, Metabolic Activation: S-9, Method: PREINCUBATION) “inactive; negative”; under setting [2], “inactive; negative”; (Test System: AMES SALMONELLA TYPHIMURIUM, Strain/Indicator: TA100, Metabolic Activation: S-9, Method: PREINCUBATION) “inactive; negative”; under setting [3], “inactive; negative”; (Test System: AMES SALMONELLA TYPHIMURIUM, Strain/Indicator: TA1535, Metabolic Activation: S-9, Method: PREINCUBATION) “inactive; negative”. Further, the mutagenic call runs as follows: under setting [4], “inactive; negative”; (Test System: AMES SALMONELLA TYPHIMURIUM, Strain/Indicator: TA1537, Metabolic Activation: S-9, Method: PREINCUBATION) “inactive; negative”; (Test System: E. COLI, Strain/Indicator: WP2 UVRA, Metabolic Activation: NONE, Method: PREINCUBATION) “inactive; negative”; (Test System: E. COLI, Strain/Indicator: WP2 UVRA, Metabolic Activation: S-9, Method: PREINCUBATION) “inactive; negative”.
Turning to `O=NN(CCO)CCO`, the mutagenic call runs as follows: (Test System: AMES SALMONELLA TYPHIMURIUM, Strain/Indicator: TA97, Metabolic Activation: HAMSTER, LIVER, S-9, AROCLOR 1254 (10%), Method: PREINCUBATION) “active; positive”; (Test System: AMES SALMONELLA TYPHIMURIUM, Strain/Indicator: TA97, Metabolic Activation: NONE, Method: PREINCUBATION) “active; positive”; (Test System: AMES SALMONELLA TYPHIMURIUM, Strain/Indicator: TA97, Metabolic Activation: RAT, LIVER, S-9, AROCLOR 1254 (10%), Method: PREINCUBATION) “active; positive”; under setting [5], “active; positive”; under setting [1], “active; positive”; under setting [6], “active; positive”. The mutagenic call is, setting by setting: under setting [7], “active; positive”; (Test System: AMES SALMONELLA TYPHIMURIUM, Strain/Indicator: TA100, Metabolic Activation: NONE, Method: STANDARD PLATE) “active; positive”; (Test System: AMES SALMONELLA TYPHIMURIUM, Strain/Indicator: TA100, Metabolic Activation: RABBIT, LIVER, S-9, Method: STANDARD PLATE) “inactive; negative”; (Test System: AMES SALMONELLA TYPHIMURIUM, Strain/Indicator: TA100, Metabolic Activation: RABBIT, LUNG, S-9, Method: STANDARD PLATE) “inactive; negative”; (Test System: AMES SALMONELLA TYPHIMURIUM, Strain/Indicator: TA100, Metabolic Activation: RABBIT, NASAL, S-9, Method: STANDARD PLATE) “active; positive”; under setting [8], “active; positive”. In addition, the mutagenic call was “inactive; negative” (Test System: AMES SALMONELLA TYPHIMURIUM, Strain/Indicator: TA100, Metabolic Activation: RAT, LIVER, S-9, Method: STANDARD PLATE); “active; positive” (Test System: AMES SALMONELLA TYPHIMURIUM, Strain/Indicator: TA100, Metabolic Activation: RAT, LUNG, S-9, Method: STANDARD PLATE); “active; positive” (Test System: AMES SALMONELLA TYPHIMURIUM, Strain/Indicator: TA100, Metabolic Activation: RAT, NASAL, S-9, Method: STANDARD PLATE); “active; positive” under setting [9]; “inactive; negative” under setting [3]; “active; positive” under setting [10].
As to `CCCCCCCCCCCC[N+](C)(C)COCCCCCCCC`, the mutagenic call (Test System: BACILLUS SUBTILIS, Strain/Indicator: H17/REC, Metabolic Activation: NONE, Method: STANDARD PLATE) was “inactive; negative” and the mutagenic call (Test System: BACILLUS SUBTILIS, Strain/Indicator: M45, Metabolic Activation: NONE, Method: STANDARD PLATE) is “inactive; negative”.
Turning to `Cc1c(O)cc([N+](=O)[O-])cc1[N+](=O)[O-]`, the mutagenic call reads like this: (Test System: AMES SALMONELLA TYPHIMURIUM, Strain/Indicator: TA98, Metabolic Activation: RAT, LIVER, S-9, KANECHLOR 500, Method: PREINCUBATION) “inactive; negative”; under setting [2], “inactive; negative”; (Test System: AMES SALMONELLA TYPHIMURIUM, Strain/Indicator: TA100, Metabolic Activation: RAT, LIVER, S-9, KANECHLOR 500, Method: PREINCUBATION) “inactive; negative”.
In the case of `CCCCN(CCCCO)N=O`, the mutagenic call was “inactive; negative” under setting [3]; “inactive; negative” (Test System: AMES SALMONELLA TYPHIMURIUM, Strain/Indicator: TA1535, Metabolic Activation: RAT, LIVER, HEPATOCYTES, Method: PREINCUBATION); “active; positive” (Test System: AMES SALMONELLA TYPHIMURIUM, Strain/Indicator: TA1535, Metabolic Activation: RAT, LIVER, S-9, AROCLOR, Method: PREINCUBATION); “active; positive” (Test System: AMES SALMONELLA TYPHIMURIUM, Strain/Indicator: TA1535, Metabolic Activation: RAT, LIVER, S-9, KC500 OR PHENOBARBITAL, Method: LIQUID SUSPENSION); “active; positive” (Test System: AMES SALMONELLA TYPHIMURIUM, Strain/Indicator: TA1535, Metabolic Activation: RAT, LIVER, S-9, SODIUM PHENOBARBITONE, Method: PREINCUBATION); “inactive; negative” (Test System: AMES SALMONELLA TYPHIMURIUM, Strain/Indicator: TA1535, Metabolic Activation: RAT, LIVER, S-9, Method: PREINCUBATION).
Consider `Cc1c(Br)c(Br)c(Br)c(Br)c1Br`, for which the mutagenic call under setting [5] is “inactive; negative”; the mutagenic call under setting [1] was “inactive; negative”; the mutagenic call under setting [6] is “inactive; negative”; the mutagenic call under setting [7] is “inactive; negative”; the mutagenic call under setting [2] is “inactive; negative”; the mutagenic call under setting [8] is “inactive; negative”. Moreover, the mutagenic call by setting is: under setting [9], “inactive; negative”; under setting [3], “inactive; negative”; under setting [10], “inactive; negative”; (Test System: AMES SALMONELLA TYPHIMURIUM, Strain/Indicator: TA1537, Metabolic Activation: HAMSTER, LIVER, S-9, AROCLOR 1254 (10%), Method: PREINCUBATION) “inactive; negative”; under setting [4], “inactive; negative”; (Test System: AMES SALMONELLA TYPHIMURIUM, Strain/Indicator: TA1537, Metabolic Activation: RAT, LIVER, S-9, AROCLOR 1254 (10%), Method: PREINCUBATION) “inactive; negative”.
